B1: wild type BM3: wild type cytochrome P450-BM3 from Bacillus megaterium, provided by Frances Arnold's laboratory (protein, UniProt P14779 1-1049, looked up)
Bifunctional cytochrome …: MTIKEMPQPKTFGELKNLPLLNTDKPVQALMKIADELGEIFKFEAPGRVTRYLSSQRLIKEACDESRFDKNLSQALKFVRDFAGDGLFTSWTHEKNWKKAHNILLPSFSQQAMKGYHAMMVDIAVQLVQKWERLNADEHIEVPEDMTRLTLDTIGLCGFNYRFNSFYRDQPHPFITSMVRALDEAMNKLQRANPDDPAYDENKRQFQEDIKVMNDLVDKIIADRKASGEQSDDLLTHMLNGKDPETGEPLDDENIRYQIITFLIAGHETTSGLLSFALYFLVKNPHVLQKAAEEAARVLVDPVPSYKQVKQLKYVGMVLNEALRLWPTAPAFSLYAKEDTVLGGEYPLEKGDELMVLIPQLHRDKTIWGDDVEEFRPERFENPSAIPQHAFKPFGNGQRACIGQQFALHEATLVLGMMLKHFDFEDHTNYELDIKETLTLKPEGFVVKAKSKKIPLGGIPSPSTEQSAKKVRKKAENAHNTPLLVLYGSNMGTAEGTARDLADIAMSKGFAPQVATLDSHAGNLPREGAVLIVTASYNGHPPDNAKQFVDWLDQASADEVKGVRYSVFGCGDKNWATTYQKVPAFIDETLAAKGAENIADRGEADASDDFEGTYEEWREHMWSDVAAYFNLDIENSEDNKSTLSLQFVDSAADMPLAKMHGAFSTNVVASKELQQPGSARSTRHLEIELPKEASYQEGDHLGVIPRNYEGIVNRVTARFGLDASQQIRLEAEEEKLAHLPLAKTVSVEELLQYVELQDPVTRTQLRAMAAKTVCPPHKVELEALLEKQAYKEQVLAKRLTMLELLEKYPACEMKFSEFIALLPSIRPRYYSISSSPRVDEKQASITVSVVSGEAWSGYGEYKGIASNYLAELQEGDTITCFISTPQSEFTLPKDPETPLIMVGPGTGVAPFRGFVQARKQLKEQGQSLGEAHLYFGCRSPHEDYLYQEELENAQSEGIITLHTAFSRMPNQPKTYVQHVMEQDGKKLIELLDQGAHFYICGDGSQMAPAVEATLMKSYADVHQVSEADARLWLQQLEEKGRYAKDVWAG

Tests used:
BM3 protein = BM3 protein (Priestia megaterium, UniProt P14779); experiment: biochemical
Text: In another example, a spectroscopic assay based on analyte-induced absorbance shifts was employed to estimate binding affinities and ligand selectivity of the mutant proteins in the above Examples. […] This method allowed both an estimation of an analyte's dissociation constant and a determination of selectivity.

[1] = T1 relaxivity / T1-weighted images in the presence of melatonin; type: biochemical; conditions: Example 3, FIGS. 8-9
[2] = T1 relaxivity by MRI in the presence of dopamine; conditions: Example 3, FIGS. 8-9
Text: To determine the extent of that the interaction between exchanging water molecules at the axial site and the heme iron atom promotes T1 relaxation in aqueous solutions, a spin echo MRI pulse sequence was used to measure the proton relaxation rate as a function of protein concentration in phosphate buffered saline solution (PBS); the slope of this relationship (T1 relaxivity, or r1) provided a standard measure of the strength of a contrast agent.
Samples (60-100 microliters) were arrayed into microtiter plates and placed in a 40-cm-bore Bruker (Billerica, Mass.) Avance 4.7 T MRI scanner, equipped with a 10 cm inner diameter birdcage resonator radiofrequency coil and 26 G/cm triple axis gradients. Unused wells of the microtiter plates were filled with phosphate buffered saline, and imaging was performed on a 2-mm slice through the sample. A T1-weighted spin echo pulse sequence was used; echo time (TE) was 10 ms, and repetition times (TR) ranged from 77 ms to 5 s. Data matrices of 512×128 points were acquired and zero-filled to 1024×512 points, where the second dimension corresponds to the phase encoding direction. Images were reconstructed and analyzed using custom routines running in Matlab. Relaxation rates and relaxivities reported here were calculated by exponential fitting to the image data.

Experimental for PC12 cells: PC12 cells were grown in suspension in F-12K medium supplemented with 15% horse serum and 2.5% fetal bovine serum (ATCC, Manassas, Va.). In preparation for DA release experiments, 50 mL cell cultures were incubated for one hour in medium supplemented with 1 mM DA and 1 mM ascorbic acid, pelleted and washed twice with Locke's buffer (154 mM NaCl, 5.6 mM KCl, 3.6 mM NaHCO3, 2.3 mM CaCl2, 5.6 mM D-glucose, and 5 mM HEPES, pH 7.4). Washed PC12 cell pellets were resuspended in 200 microliters of Locke's buffer, with or without 32 micromolar BM3h-B7 sensor and containing either 5.6 or 59.6 mM K^+ (the low K^+ condition was osmotically balanced with Na^+). After 30-60 minutes incubation at room temperature, cells were pelleted and the supernatant was imaged in an MRI scanner as described above.

Molecule | Kd (BM3 protein) | DA concentration by ELISA, stimulated cells (PC12 cells; K+-stimulated PC12 cells) | DA concentration by ELISA, control cells (PC12 cells; Na+ control PC12 cells) | T1 relaxivity response to melatonin [1] | relative T1 relaxivity response to DA versus 5-HT [2]
NCCc1c[nH]c2ccc(O)cc12 [serotonin] | ~1000 µM | – | – | – | –
NCCc1ccc(O)c(O)c1 [dopamine] | ~1000 µM | 54 ± 9 µM | 13 ± 2 µM | – | –
B1 | – | – | – | minimal response | greater response to DA

Reference: patent US20110135575A1, “METALLOPROTEIN MRI CONTRAST AGENTS AND RELATED METHODS” (Massachusetts Institute of Technology, priority 2007, published 2011)
